Here are results for two compounds from patent publication US6699849B1, “Cyclodextrin complexes of benzodiazepines” (Cyclops, ehf., priority 1998, dated 2004).

Data set [1] in a line: Transdermal delivery of enalaprilat from 10% (w/v) HPβCD solutions, effect of heating with polymers. The following applies: for Flux Ratio (heated/un-heated): donor phase HPβCD, pH 5.0. In kind it is in vitro ADME. The source says:
It is possible to enhance the cyclodextrin (CD) complexation efficacy, or efficiency, of drugs (D), and other “guest” molecules, by either increasing the apparent stability constant (KC) of the drug-cyclodextrin complex (D-CD) or increasing the apparent intrinsic solubility (S0) of the drug. For example, KC can be increased by addition of water-soluble polymers to the aqueous complexation media and S0 can be increased by ionization of the drug molecule, as described previously. […] On the other hand, if the drug-cyclodextrin complexes are prepared under conditions which ensure enhanced complexation and if the complexation efficiency decreases upon administration, then enhanced drug availability will be observed. Thus, the present invention involves: i) enhancement of the complexation efficiency and ii) reduction of the complexation efficiency after administration. For example, it is possible to enhance the complexation efficiency of many ionizable drugs by preparing the complexes at a pH where the drug is ionized but obtain decreased efficiency upon administration due to pH changes and consequent decreased ionization. One example of such a drug is phenytoin (pKa 8.1). […] However, if the pH 8.0 solution was placed in an environment which would decrease the pH from 8 to 5 (e.g. topical application to the skin), then a supersaturated solution would be formed which would result in enhanced drug availability (e.g. it would result in enhanced transdermal drug delivery). Other means to enhance S0 include reversible derivation (e.g. prodrug formation) of the guest molecule and addition of certain low molecular weight acids. The value of KC can, for example, be increased by addition of certain low molecular weight acids, by addition of water-soluble polymers to the aqueous complexation media or by using mixed solvent systems such as aqueous 10% (v/v) acetic acid. […] The effect of the polymers on the transdermal delivery of enalaprilat can, at least partly, be explained by decreased complexation efficiency (i.e. decrease in KC) at the skin surface.

For data set [2] the following is noted: cited from earlier work.
The conditions of data set [3]: cited from earlier work; for solubility in water: room temperature (25° C.).
Data set [4] is classed as physicochemical. The source says: It is possible to enhance the cyclodextrin (CD) complexation efficacy, or efficiency, of drugs (D), and other “guest” molecules, by either increasing the apparent stability constant (KC) of the drug-cyclodextrin complex (D-CD) or increasing the apparent intrinsic solubility (S0) of the drug. For example, KC can be increased by addition of water-soluble polymers to the aqueous complexation media and S0 can be increased by ionization of the drug molecule, as described previously. […] On the other hand, if the drug-cyclodextrin complexes are prepared under conditions which ensure enhanced complexation and if the complexation efficiency decreases upon administration, then enhanced drug availability will be observed. Thus, the present invention involves: i) enhancement of the complexation efficiency and ii) reduction of the complexation efficiency after administration. For example, it is possible to enhance the complexation efficiency of many ionizable drugs by preparing the complexes at a pH where the drug is ionized but obtain decreased efficiency upon administration due to pH changes and consequent decreased ionization. One example of such a drug is phenytoin (pKa 8.1). […]

By pKa is commonly meant the pH at which an ionisable group is half protonated.

Molecules are shown by their SMILES. ≈ marks a conversion by molar mass, not a printed value. Where two headings read alike, the source gives them in different places.

Consider `C[C@H](N[C@@H](CCc1ccccc1)C(=O)O)C(=O)N1CCC[C@H]1C(=O)O` [enalaprilat], for which the “Flux Ratio (heated/un-heated)” value worked out at 2.6 in data set [1] (0.10% HPMC) and 1.4 in data set [1] (0.25% PVP). For the same compound, the “effect of polymers on transdermal delivery” value in data set [1] (polymers added to unheated vehicles) is listed as “did not enhance”; in data set [1] (vehicles heated after addition of the polymers) it was “significant enhancement”.
For the compound `O=C1NC(=O)C(c2ccccc2)(c2ccccc2)N1` [phenytoin, 5,5-diphenyl-2,4-imidazolidinedione], the pKa in data set [2] is 8.1. For the same compound, the “solubility with 25% (w/v) 2-hydroxypropyl-β-cyclodextrin” value was 5000 µg/mL in data set [3] (pH 5) and 6400 µg/mL in data set [3] (pH 8). In addition, the solubility in water was 18 µg/mL (≈ 71.4 µM) in data set [3] (pH 5) and 32 µg/mL (≈ 127 µM) in data set [3] (pH 8). Further, the results for the “solubility enhancement by 25% (w/v) 2-hydroxypropyl-β-cyclodextrin” value in data set [4] (pH 5) and in data set [4] (pH 8) were 280 fold and 200 fold, respectively.
